From US10765114B2, “4-amino-6-(pyridyl and 2-substitutedphenyl)-picolinates and 6-amino-2-(pyridyl and 2-substitutedphenyl)-pyrimidine-4-carboxylates and their use as herbicides” (Dow AgroSciences LLC, priority 2013, dated 2020)
Like-named read-outs stand apart in the source and are kept apart here.

Tests used:
[1] = test system: Key Grass and Sedge Weeds as well as Grass Crops; test: Post-Emergent Test II (Table 6); assay type: in vivo; details: post-emergence, 336 h, 14 days after application; for pest or weed control at 70 g/ha: 70 g ai/ha; for pest or weed control at 140 g/ha: 140 g ai/ha
How it was run: (§1)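 Seedlings are raised 7-21 days in Metro-Mix 360 (pH 6.0-6.8) under greenhouse conditions, then sprayed at the first or second true leaf stage. Application is 187 L/ha, with serial rates down to 1/16× of the highest. Plants are subirrigated, and percent injury is rated visually after 14 days.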

[2] = test system: Key Broadleaf Weed and Crop Species; test: Post-Emergent Test II (Table 5); assay type: in vivo; details: post-emergence, 336 h; for pest or weed control at 70 g/ha: application rate 70 (kg ai/ha; footnote: g ai/ha); for pest or weed control at 140 g/ha: application rate 140 (kg ai/ha; footnote: g ai/ha)
How it was run: as §1

[3] = CYPSS, read-out: Visual Growth Reduction (%) 14 Days After Application CYPSS
[4] = DIGSA: crabgrass (Digitaria sanguinalis), read-out: Visual Growth Reduction (%) 14 Days After Application DIGSA
[5] = ECHSS, read-out: Visual Growth Reduction (%) 14 Days After Application ECHSS
[6] = ORYSS (crop), read-out: Visual Growth Reduction (%) 14 Days After Application ORYSS
[7] = SETFA: giant foxtail (Setaria faberi), read-out: Visual Growth Reduction (%) 14 Days After Application SETFA
[8] = SORVU: grain sorghum (Sorghum vulgare), read-out: Visual Growth Reduction (%) 14 Days After Application SORVU
[9] = TRZSS (crop), read-out: Visual Growth Reduction (%) 14 Days After Application TRZSS
[10] = ZEAMX: maize, corn (Zea mays), read-out: Visual Growth Reduction (%) 14 Days After Application ZEAMX
[11] = Abutilon theophrasti, ABUTH: velvetleaf (Abutilon theophrasti), read-out: Visual Growth Reduction (%) 14 Days After Application ABUTH
[12] = Amaranthus retroflexus, AMARE: redroot pigweed (Amaranthus retroflexus), read-out: Visual Growth Reduction (%) 14 Days After Application AMARE
[13] = Brassica napus, BRSSS: oilseed rape, canola (Brassica napus), read-out: Visual Growth Reduction (%) 14 Days After Application BRSSS
[14] = Chenopodium album, CHEAL: lambsquarters (Chenopodium album), read-out: Visual Growth Reduction (%) 14 Days After Application CHEAL
[15] = Euphorbia heterophylla, EPHHL: wild poinsettia (Euphorbia heterophylla), read-out: Visual Growth Reduction (%) 14 Days After Application EPHHL
[16] = Helianthus annuus, HELAN: sunflower (Helianthus annuus), read-out: Visual Growth Reduction (%) 14 Days After Application HELAN
[17] = Viola tricolor, VIOTR: wild pansy (Viola tricolor), read-out: Visual Growth Reduction (%) 14 Days After Application VIOTR

SMILES | pest or weed control at 70 g/ha [1, 3] [%] | pest or weed control at 140 g/ha [1, 3] [%] | pest or weed control at 70 g/ha [1, 4] [%] | pest or weed control at 140 g/ha [1, 4] [%] | pest or weed control at 70 g/ha [1, 6] [%] | pest or weed control at 140 g/ha [1, 6] [%] | pest or weed control at 70 g/ha [1, 7] [%] | pest or weed control at 140 g/ha [1, 7] [%] | pest or weed control at 70 g/ha [1, 8] [%] | pest or weed control at 140 g/ha [1, 8] [%] | pest or weed control at 70 g/ha [1, 9] [%] | pest or weed control at 140 g/ha [1, 9] [%] | pest or weed control at 70 g/ha [1, 10] [%] | pest or weed control at 140 g/ha [1, 10] [%] | pest or weed control at 70 g/ha [2, 11] [%] | pest or weed control at 140 g/ha [2, 11] [%] | pest or weed control at 70 g/ha [2, 12] [%] | pest or weed control at 140 g/ha [2, 12] [%] | pest or weed control at 70 g/ha [2, 13] [%] | pest or weed control at 140 g/ha [2, 13] [%] | other results
Nc1c(F)c(-c2ccc(I)nc2)nc(C(=O)O)c1Cl [Compound 81] | 95 to 100 | 95 to 100 | 75 to 84 | 75 to 84 | 45 to 59 | 60 to 74 | 75 to 84 | 85 to 94 | 45 to 59 | 45 to 59 | 60 to 74 | 60 to 74 | 30 to 44 | 45 to 59 | 85 to 94 | 85 to 94 | 95 to 100 | 95 to 100 | 85 to 94 | 85 to 94 | pest or weed control at 70 g/ha [1, 5]: 85 to 94%; pest or weed control at 140 g/ha [1, 5]: 85 to 94%; pest or weed control at 70 g/ha [2, 14]: 95 to 100%; pest or weed control at 140 g/ha [2, 14]: 95 to 100%; pest or weed control at 70 g/ha [2, 15]: 95 to 100%; pest or weed control at 140 g/ha [2, 15]: 95 to 100%; pest or weed control at 70 g/ha [2, 16]: 75 to 84%; pest or weed control at 140 g/ha [2, 16]: 85 to 94%; pest or weed control at 70 g/ha [2, 17]: 95 to 100%; pest or weed control at 140 g/ha [2, 17]: 95 to 100%
COC(=O)c1nc(-c2ccc(C(F)(F)F)nc2OC)c(F)c(N)c1Cl [Compound 44, methyl 4-amino-5-chloro-3-fluoro-2′-methoxy-6′-(trifluoromethyl)-2,3′-bipyridine-6-carboxylate] | 0 to 29 | 0 to 29 | 0 to 29 | 0 to 29 | 0 to 29 | 0 to 29 | 0 to 29 | 0 to 29 | 0 to 29 | 0 to 29 | 0 to 29 | 0 to 29 | 0 to 29 | 0 to 29 | 45 to 59 | 75 to 84 | 0 to 29 | 95 to 100 | 45 to 59 | 60 to 74 | pest or weed control at 70 g/ha [2, 14]: 85 to 94%; pest or weed control at 140 g/ha [2, 14]: 85 to 94%; pest or weed control at 70 g/ha [2, 15]: 0 to 29%; pest or weed control at 140 g/ha [2, 15]: 0 to 29%; pest or weed control at 70 g/ha [2, 16]: 85 to 94%; pest or weed control at 140 g/ha [2, 16]: 85 to 94%; pest or weed control at 70 g/ha [2, 17]: 0 to 29%; pest or weed control at 140 g/ha [2, 17]: 0 to 29%
COC(=O)c1nc(-c2ccc(Br)nc2)c(F)c(N)c1Cl [Compound 22, methyl 4-amino-6′-bromo-5-chloro-3-fluoro-[2,3′-bipyridine]-6-carboxylate] | 95 to 100 | 95 to 100 | 85 to 94 | 85 to 94 | 30 to 44 | 0 to 29 | 85 to 94 | 85 to 94 | 95 to 100 | 95 to 100 | 85 to 94 | 95 to 100 | 85 to 94 | 95 to 100 | 95 to 100 | 95 to 100 | 95 to 100 | 95 to 100 | 95 to 100 | 95 to 100 | pest or weed control at 70 g/ha [1, 5]: 85 to 94%; pest or weed control at 140 g/ha [1, 5]: 95 to 100%; pest or weed control at 70 g/ha [2, 14]: 95 to 100%; pest or weed control at 140 g/ha [2, 14]: 95 to 100%; pest or weed control at 70 g/ha [2, 15]: 95 to 100%; pest or weed control at 140 g/ha [2, 15]: 95 to 100%; pest or weed control at 70 g/ha [2, 16]: 85 to 94%; pest or weed control at 140 g/ha [2, 16]: 95 to 100%; pest or weed control at 70 g/ha [2, 17]: 95 to 100%; pest or weed control at 140 g/ha [2, 17]: 95 to 100%
